Active and inactive are the calls of the source.
How the values were obtained:
[1] = target: Phosphorylase b kinase gamma catalytic chain, liver/testis isoform (Homo sapiens, UniProt P15735); format: functional;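 further: PHKG2 measured as one member of a kinome-wide kinase panel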
[2] = target: MAP kinase-activated protein kinase 5 (Homo sapiens, UniProt Q8IW41); format: functional;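 further: measured as one member of a kinome panel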
[3] = target: Casein kinase I isoform gamma-1 (Homo sapiens, UniProt Q9HCP0); format: functional;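 further: measured as the CSNK1G1 member of a kinome profiling panel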
Chain of Casein kinase I isoform gamma-1 (Q9HCP0 whole entry, canonical isoform): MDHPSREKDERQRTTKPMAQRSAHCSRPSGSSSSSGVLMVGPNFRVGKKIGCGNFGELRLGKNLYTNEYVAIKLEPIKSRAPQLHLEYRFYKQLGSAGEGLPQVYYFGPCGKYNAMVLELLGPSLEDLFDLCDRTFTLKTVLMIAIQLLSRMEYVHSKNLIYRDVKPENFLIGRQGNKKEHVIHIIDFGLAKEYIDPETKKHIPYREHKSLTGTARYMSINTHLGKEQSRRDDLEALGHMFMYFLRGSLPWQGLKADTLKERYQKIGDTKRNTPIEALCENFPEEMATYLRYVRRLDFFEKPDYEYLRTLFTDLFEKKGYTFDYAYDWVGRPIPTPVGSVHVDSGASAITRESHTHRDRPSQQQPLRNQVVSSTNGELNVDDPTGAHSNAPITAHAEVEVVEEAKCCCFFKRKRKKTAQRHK

[4] = target: Tyrosine-protein kinase Blk (Homo sapiens, UniProt P51451); format: functional;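 further: obtained as one member of a kinome-wide kinase assay panel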
Chain of Tyrosine-protein kinase Blk (P51451 whole entry): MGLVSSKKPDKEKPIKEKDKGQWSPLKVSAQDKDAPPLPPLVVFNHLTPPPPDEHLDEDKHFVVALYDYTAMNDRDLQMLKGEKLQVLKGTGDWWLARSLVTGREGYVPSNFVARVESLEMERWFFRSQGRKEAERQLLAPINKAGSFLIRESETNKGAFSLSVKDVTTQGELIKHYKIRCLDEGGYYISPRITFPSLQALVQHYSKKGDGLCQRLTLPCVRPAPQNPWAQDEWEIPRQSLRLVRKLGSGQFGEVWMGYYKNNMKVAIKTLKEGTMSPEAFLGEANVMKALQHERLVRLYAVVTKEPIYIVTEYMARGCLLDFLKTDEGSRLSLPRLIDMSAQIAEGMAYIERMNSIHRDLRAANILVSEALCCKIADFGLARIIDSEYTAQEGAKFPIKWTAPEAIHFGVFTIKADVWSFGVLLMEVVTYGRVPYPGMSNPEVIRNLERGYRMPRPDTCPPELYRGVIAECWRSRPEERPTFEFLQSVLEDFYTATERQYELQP

[5] = target: Tyrosine-protein kinase Srms (Homo sapiens, UniProt Q9H3Y6); format: functional;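 further: SRMS measured as one member of a kinome-wide kinase profiling panel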
Chain of Tyrosine-protein kinase Srms (Q9H3Y6 whole entry): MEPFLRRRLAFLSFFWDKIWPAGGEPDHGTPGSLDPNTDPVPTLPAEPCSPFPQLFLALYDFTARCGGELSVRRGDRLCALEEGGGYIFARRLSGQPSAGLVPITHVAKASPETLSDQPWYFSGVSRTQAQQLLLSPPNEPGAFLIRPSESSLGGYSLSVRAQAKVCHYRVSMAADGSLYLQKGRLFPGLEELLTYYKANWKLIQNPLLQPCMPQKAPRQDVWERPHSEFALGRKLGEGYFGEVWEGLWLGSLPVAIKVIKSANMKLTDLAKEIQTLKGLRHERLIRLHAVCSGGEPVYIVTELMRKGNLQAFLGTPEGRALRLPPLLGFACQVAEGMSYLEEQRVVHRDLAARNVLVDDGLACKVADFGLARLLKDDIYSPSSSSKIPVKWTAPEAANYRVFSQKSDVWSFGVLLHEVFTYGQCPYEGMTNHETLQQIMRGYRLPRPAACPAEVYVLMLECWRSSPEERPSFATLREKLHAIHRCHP

[6] = target: Protein kinase C zeta type (Homo sapiens, UniProt Q05513); format: functional;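 further: measured as one member of a broad kinase profiling panel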
Chain of Protein kinase C zeta type (Q05513 whole entry): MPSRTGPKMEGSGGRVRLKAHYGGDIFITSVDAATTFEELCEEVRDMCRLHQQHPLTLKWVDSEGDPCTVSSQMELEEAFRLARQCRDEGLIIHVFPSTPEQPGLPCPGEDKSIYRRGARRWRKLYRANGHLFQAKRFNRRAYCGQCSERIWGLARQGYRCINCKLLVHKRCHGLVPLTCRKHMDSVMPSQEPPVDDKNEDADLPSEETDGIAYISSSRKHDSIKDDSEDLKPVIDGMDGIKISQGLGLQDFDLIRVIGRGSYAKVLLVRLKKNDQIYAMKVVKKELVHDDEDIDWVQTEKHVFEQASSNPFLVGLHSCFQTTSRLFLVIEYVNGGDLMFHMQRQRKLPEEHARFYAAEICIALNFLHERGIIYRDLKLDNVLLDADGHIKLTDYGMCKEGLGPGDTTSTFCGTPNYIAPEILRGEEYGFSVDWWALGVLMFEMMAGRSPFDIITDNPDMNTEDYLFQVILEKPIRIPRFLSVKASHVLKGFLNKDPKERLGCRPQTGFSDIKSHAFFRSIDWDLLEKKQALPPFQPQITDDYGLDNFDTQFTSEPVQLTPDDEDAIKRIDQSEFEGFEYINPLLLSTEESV

[7] = target: Serine/threonine-protein kinase PLK1 (Homo sapiens, UniProt P53350); format: functional;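 further: PLK1 measured as one member of a kinome-wide profiling panel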
Chain of Serine/threonine-protein kinase PLK1 (P53350 whole entry): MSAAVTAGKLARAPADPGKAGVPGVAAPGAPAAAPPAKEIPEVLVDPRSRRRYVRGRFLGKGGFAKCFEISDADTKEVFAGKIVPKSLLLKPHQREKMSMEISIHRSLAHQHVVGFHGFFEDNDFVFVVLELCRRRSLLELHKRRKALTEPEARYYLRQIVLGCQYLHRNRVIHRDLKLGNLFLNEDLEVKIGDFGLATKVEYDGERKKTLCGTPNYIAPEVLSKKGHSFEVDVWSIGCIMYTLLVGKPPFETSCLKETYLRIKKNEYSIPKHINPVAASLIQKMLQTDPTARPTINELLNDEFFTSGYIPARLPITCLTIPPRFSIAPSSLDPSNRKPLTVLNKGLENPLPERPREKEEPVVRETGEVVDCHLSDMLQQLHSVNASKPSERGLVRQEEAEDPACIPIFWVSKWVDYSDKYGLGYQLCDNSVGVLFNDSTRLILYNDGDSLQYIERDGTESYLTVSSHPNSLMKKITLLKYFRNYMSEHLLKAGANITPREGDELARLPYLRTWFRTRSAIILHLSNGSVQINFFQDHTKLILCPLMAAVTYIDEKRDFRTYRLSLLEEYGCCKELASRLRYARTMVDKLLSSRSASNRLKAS

[8] = target: cAMP-dependent protein kinase catalytic subunit alpha (Homo sapiens, UniProt P17612); format: functional
[9] = target: SUMO-activating enzyme (Homo sapiens, UniProt Q9UBT2); experiment: blockers of SAE1/SAE2–UBC9 SUMO transfer – biochemical, HTRF, uHTS, primary screen (AID 2006); format: protein-complex assay
Chain of SUMO-activating enzyme (Q9UBE0 whole entry): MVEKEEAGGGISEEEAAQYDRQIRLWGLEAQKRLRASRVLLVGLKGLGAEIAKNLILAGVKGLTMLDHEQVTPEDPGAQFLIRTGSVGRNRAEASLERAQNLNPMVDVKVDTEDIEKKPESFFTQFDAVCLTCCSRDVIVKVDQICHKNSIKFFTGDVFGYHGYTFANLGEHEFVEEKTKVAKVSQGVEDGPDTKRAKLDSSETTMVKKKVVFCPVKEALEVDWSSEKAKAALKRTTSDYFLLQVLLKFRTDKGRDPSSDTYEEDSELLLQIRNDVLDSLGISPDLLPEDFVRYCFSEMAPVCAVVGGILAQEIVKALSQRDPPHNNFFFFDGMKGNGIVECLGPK
Chain of SUMO-activating enzyme (Q9UBT2 whole entry): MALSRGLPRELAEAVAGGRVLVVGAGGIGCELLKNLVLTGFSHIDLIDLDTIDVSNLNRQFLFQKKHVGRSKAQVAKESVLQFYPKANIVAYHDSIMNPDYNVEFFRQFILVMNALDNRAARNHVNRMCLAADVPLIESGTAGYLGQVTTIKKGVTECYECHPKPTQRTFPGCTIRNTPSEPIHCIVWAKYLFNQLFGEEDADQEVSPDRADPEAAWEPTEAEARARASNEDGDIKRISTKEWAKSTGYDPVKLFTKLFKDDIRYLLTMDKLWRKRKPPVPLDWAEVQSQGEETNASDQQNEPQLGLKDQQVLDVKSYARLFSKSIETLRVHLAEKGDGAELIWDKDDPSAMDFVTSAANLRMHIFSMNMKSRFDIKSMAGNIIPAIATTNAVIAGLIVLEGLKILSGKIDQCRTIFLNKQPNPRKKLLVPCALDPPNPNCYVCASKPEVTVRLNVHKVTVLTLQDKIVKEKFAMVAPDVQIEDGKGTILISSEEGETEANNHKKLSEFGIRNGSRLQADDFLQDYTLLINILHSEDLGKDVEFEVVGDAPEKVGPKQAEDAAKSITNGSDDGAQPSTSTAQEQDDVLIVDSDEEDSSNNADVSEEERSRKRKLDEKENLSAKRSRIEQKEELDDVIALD

[10] = target: T1, Hexokinase-1 (Homo sapiens, UniProt P19367); experiment: hexokinase 1 activity inhibitors, potency – biochemical, set 2, resazurin fluorescence coupled readout, selectivity assay for HKDC1 inhibitor project, SAR follow-up (AID 588356); format: functional
T1 sequence (P19367 whole entry): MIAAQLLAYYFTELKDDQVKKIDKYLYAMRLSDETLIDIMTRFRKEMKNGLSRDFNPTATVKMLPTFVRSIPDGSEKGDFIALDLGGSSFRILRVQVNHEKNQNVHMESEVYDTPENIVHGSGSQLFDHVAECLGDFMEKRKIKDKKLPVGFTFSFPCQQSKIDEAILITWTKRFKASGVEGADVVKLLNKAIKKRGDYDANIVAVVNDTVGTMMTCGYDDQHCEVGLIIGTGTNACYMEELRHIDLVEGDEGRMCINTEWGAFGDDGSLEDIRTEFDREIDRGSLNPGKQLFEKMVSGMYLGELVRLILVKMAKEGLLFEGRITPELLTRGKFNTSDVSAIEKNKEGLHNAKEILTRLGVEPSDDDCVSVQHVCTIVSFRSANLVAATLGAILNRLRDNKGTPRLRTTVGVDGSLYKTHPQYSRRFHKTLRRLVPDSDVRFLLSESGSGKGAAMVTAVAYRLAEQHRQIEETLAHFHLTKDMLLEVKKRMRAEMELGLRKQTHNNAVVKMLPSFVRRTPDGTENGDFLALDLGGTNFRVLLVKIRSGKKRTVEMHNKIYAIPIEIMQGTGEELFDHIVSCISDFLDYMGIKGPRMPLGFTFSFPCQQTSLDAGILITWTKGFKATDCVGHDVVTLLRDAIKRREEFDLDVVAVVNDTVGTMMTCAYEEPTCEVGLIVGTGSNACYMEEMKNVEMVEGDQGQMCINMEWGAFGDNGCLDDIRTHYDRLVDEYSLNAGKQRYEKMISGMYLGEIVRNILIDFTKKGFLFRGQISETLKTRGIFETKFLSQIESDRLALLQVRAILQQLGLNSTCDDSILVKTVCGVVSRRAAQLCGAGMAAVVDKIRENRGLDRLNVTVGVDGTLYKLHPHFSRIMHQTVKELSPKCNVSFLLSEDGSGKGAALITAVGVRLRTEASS

[11] = target: T2, Replicative DNA helicase DnaB (Mycobacterium tuberculosis, UniProt P9WMR3); experiment: DnaB intein splicing inhibitors, dose response, biochemical, cell-free fluorescence (AID 449749); format: functional
T2 sequence (P9WMR3 whole entry): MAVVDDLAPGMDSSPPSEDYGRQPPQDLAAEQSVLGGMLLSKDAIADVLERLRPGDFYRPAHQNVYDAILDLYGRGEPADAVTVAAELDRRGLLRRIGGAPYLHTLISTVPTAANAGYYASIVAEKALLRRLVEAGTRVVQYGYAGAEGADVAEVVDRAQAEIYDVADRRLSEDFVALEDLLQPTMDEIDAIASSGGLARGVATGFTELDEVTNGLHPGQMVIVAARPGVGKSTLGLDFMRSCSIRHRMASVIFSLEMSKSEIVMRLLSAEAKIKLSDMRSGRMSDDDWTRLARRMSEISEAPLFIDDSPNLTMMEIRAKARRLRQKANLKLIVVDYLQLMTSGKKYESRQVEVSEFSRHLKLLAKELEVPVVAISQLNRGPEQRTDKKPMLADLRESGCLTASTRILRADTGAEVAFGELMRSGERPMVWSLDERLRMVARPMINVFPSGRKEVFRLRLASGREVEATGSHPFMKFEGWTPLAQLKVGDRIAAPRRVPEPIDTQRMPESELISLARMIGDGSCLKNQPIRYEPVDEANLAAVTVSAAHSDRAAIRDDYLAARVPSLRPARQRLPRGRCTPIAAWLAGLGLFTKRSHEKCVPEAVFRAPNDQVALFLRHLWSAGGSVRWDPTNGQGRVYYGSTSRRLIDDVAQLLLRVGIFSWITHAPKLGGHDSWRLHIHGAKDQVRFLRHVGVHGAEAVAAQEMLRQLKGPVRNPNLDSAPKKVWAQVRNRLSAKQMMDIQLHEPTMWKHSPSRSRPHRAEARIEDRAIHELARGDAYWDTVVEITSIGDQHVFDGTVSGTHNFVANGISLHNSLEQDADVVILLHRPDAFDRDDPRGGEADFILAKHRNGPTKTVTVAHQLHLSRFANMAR

Chain of Phosphorylase b kinase gamma catalytic chain, liver/testis isoform (P15735 whole entry, canonical isoform): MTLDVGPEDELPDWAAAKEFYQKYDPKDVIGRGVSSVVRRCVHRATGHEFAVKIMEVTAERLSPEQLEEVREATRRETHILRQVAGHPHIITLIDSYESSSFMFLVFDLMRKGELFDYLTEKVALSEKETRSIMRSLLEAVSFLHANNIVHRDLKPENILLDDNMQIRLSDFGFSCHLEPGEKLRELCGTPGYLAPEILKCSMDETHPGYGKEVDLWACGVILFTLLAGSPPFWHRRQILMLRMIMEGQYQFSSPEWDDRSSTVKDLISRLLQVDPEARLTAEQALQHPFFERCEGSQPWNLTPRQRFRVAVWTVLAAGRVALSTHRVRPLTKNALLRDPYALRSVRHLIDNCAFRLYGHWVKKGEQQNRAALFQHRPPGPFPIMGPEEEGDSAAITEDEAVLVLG
Chain of MAP kinase-activated protein kinase 5 (Q8IW41 whole entry, canonical isoform): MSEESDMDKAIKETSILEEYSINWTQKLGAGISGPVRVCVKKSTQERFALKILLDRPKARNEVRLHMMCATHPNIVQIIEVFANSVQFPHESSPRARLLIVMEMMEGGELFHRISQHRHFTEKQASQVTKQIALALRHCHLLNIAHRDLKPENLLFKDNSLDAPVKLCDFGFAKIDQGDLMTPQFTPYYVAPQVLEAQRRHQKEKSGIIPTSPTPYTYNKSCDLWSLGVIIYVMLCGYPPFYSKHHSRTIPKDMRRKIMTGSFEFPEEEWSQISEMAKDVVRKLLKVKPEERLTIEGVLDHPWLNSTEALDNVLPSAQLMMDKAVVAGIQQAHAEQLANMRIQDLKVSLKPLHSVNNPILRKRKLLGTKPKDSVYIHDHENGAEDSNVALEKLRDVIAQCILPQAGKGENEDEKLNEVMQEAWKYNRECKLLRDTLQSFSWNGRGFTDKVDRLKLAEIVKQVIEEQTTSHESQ

For `Cc1n[nH]c2cnc(-c3cncc(OCC(N)Cc4cccc(C(F)(F)F)c4)c3)cc12` (stereo unspecified), which Ki [1] is on record?
The Ki was 2510 nM (active).

What about the Ki [2] of the same compound?
Its Ki is > 1580 nM (inactive).

And the Ki [3]?
Its Ki is 63.1 nM (active).

What about the Ki [4] of the same compound?
The Ki was > 1580 nM (inactive).

What about the Ki [5] of the same compound?
The Ki was > 1580 nM (inactive).

How did the Ki [6] turn out when `Cc1c(C=O)c(O)n2c(nc3ccccc32)c1C#N` was run?
Its Ki is > 7940 nM (inactive).

What about the Ki [7] of the same compound?
The Ki was 1260 nM (active).

What about the Ki [8] of the same compound?
The Ki was > 7940 nM (inactive).

`CC(=O)NC1C(=O)N(CCN2CCOCC2)c2ccc(Cl)cc21` (stereo unspecified) was tested. Which IC50 [9] did it give?
Its IC50 is 13400 nM (active).

And the IC50 [10]?
Its IC50 is > 80000 nM (inactive).

And the AC50 [11]?
Its AC50 is 16600 nM (active).

Reference: ChEMBL document CHEMBL1201862, “PubChem BioAssay data set” (2004)
